Data: PubChem BioAssay (NCI)
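A five-concentration, 48-hour dose response in 96-well plates underlies each endpoint, interpolated linearly between surrounding concentrations. The concentration for full growth arrest is given as TGI.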

Experiments:
Assay in all cases: NCI tumour cell line growth inhibition, 48 h
[1] = system: HT29 colon
[2] = system: HL-60(TB) leukemia
[3] = system: K-562 leukemia
[4] = system: MALME-3M melanoma
[5] = system: MDA-MB-231 breast
[6] = system: UO-31 renal
[7] = system: EKVX NSCLC
[8] = system: SF-295 CNS
[9] = system: RPMI-8226 leukemia
[10] = system: IGROV1 ovarian
[11] = system: NCI/ADR-RES ovarian
[12] = system: SNB-75 CNS
[13] = system: HCC-2998 colon
[14] = system: LOX IMVI melanoma
[15] = system: MDA-N
[16] = system: SK-OV-3 ovarian
[17] = system: SF-539 CNS
[18] = system: COLO 205 colon
[19] = system: HS 578T breast
[20] = system: SF-268 CNS
[21] = system: 786-0 renal
[22] = system: HCT-15 colon
[23] = system: HOP-92 NSCLC
[24] = system: SR leukemia
[25] = system: HCT-116 colon
[26] = system: SK-MEL-5 melanoma
[27] = system: NCI-H226 lung
[28] = system: OVCAR-8 ovarian
[29] = system: SN12C renal
[30] = system: SW-620 colon
[31] = system: U251 CNS
[32] = system: SNB-19 CNS
[33] = system: HOP-62 NSCLC
[34] = system: UACC-257 melanoma
[35] = system: OVCAR-5 ovarian
[36] = system: T-47D breast
[37] = system: ACHN renal
[38] = system: BT-549 breast
[39] = system: DU-145 prostate
[40] = system: SK-MEL-28 melanoma
[41] = system: MOLT-4 leukemia
[42] = system: UACC-62 melanoma
[43] = system: NCI-H460 lung
[44] = system: OVCAR-3 ovarian
[45] = system: RXF 393 renal
[46] = system: NCI-H23 lung
[47] = system: NCI-H522 lung
[48] = system: MDA-MB-435
[49] = system: KM12 colon
[50] = system: OVCAR-4 ovarian
[51] = system: CAKI-1 renal
[52] = system: CCRF-CEM leukemia
[53] = system: PC-3 prostate
[54] = system: TK-10 renal
[55] = system: SK-MEL-2 melanoma
[56] = system: MCF7 breast
[57] = system: A549 NSCLC
[58] = system: M14 melanoma

CC(C)=CC[C@]12CCN[C@H]1N(S(=O)(=O)c1ccccc1)c1ccccc12
TGI [1]: 39 µM
TGI [2]: 45.6 µM
TGI [3]: 56.9 µM
TGI [4]: 32.7 µM
TGI [5]: 58.5 µM
TGI [6]: 33.3 µM
TGI [7]: 21.3 µM
TGI [8]: 34.5 µM
TGI [9]: 45.9 µM
TGI [10]: 30.8 µM
TGI [11]: 30.5 µM
TGI [12]: 44.5 µM
TGI [13]: 32.1 µM
TGI [14]: 31.2 µM
TGI [15]: 29.1 µM
TGI [16]: 38.9 µM
TGI [17]: 36.9 µM
TGI [18]: 41 µM
TGI [19]: 44.5 µM
TGI [20]: 33.3 µM
TGI [21]: 32.2 µM
TGI [22]: 32.8 µM
TGI [23]: 28.3 µM
TGI [24]: 51 µM
TGI [25]: 27.9 µM
TGI [26]: 28.1 µM
TGI [27]: 36.7 µM
TGI [28]: 33.9 µM
TGI [29]: 26.4 µM
TGI [30]: 36.9 µM
TGI [31]: 30.7 µM
TGI [32]: 51.2 µM
TGI [33]: 29.1 µM
TGI [34]: 34.8 µM
TGI [35]: > 100 µM
TGI [36]: 92.9 µM
TGI [37]: 50.7 µM
TGI [38]: 33.7 µM
TGI [39]: > 100 µM
TGI [40]: 31.5 µM
TGI [41]: 75.8 µM
TGI [42]: 29.2 µM
TGI [43]: 29 µM
TGI [44]: 30.6 µM
TGI [45]: 27.6 µM
TGI [46]: > 100 µM
TGI [47]: 30.1 µM
TGI [48]: 32.5 µM
TGI [49]: 76.3 µM
TGI [50]: 42 µM
TGI [51]: 69.4 µM
TGI [52]: > 100 µM
TGI [53]: 27.4 µM
TGI [54]: > 100 µM
TGI [55]: 31.6 µM
TGI [56]: 39.8 µM
TGI [57]: 59.1 µM

C/C=C(/C)C(=O)O[C@@H]1CCN2CC[C@H](COC(=O)/C(=C/C)CO)C12 (stereo not given in full)
TGI [1]: > 31.6 µM
TGI [2]: > 100 µM
TGI [3]: 18.3 µM
TGI [4]: 84.2 µM
TGI [5]: > 100 µM
TGI [6]: > 100 µM
TGI [7]: > 100 µM
TGI [8]: > 100 µM
TGI [9]: > 87.8 µM
TGI [10]: > 100 µM
TGI [11]: > 100 µM
TGI [12]: > 100 µM
TGI [13]: 44 µM
TGI [14]: > 100 µM
TGI [15]: > 100 µM
TGI [16]: > 100 µM
TGI [17]: > 100 µM
TGI [18]: 42.7 µM
TGI [19]: > 93.4 µM
TGI [20]: > 100 µM
TGI [21]: > 100 µM
TGI [22]: > 100 µM
TGI [23]: > 100 µM
TGI [24]: > 100 µM
TGI [25]: > 100 µM
TGI [26]: > 62 µM
TGI [27]: > 100 µM
TGI [28]: > 100 µM
TGI [29]: > 100 µM
TGI [30]: > 100 µM
TGI [31]: > 100 µM
TGI [58]: 36.3 µM
TGI [32]: > 100 µM
TGI [33]: > 100 µM
TGI [34]: 99.7 µM
TGI [35]: > 100 µM
TGI [36]: > 100 µM
TGI [37]: > 100 µM
TGI [38]: > 100 µM
TGI [39]: > 100 µM
TGI [40]: > 100 µM
TGI [41]: > 100 µM
TGI [42]: > 100 µM
TGI [43]: > 100 µM
TGI [44]: > 100 µM
TGI [45]: > 100 µM
TGI [46]: > 100 µM
TGI [47]: > 100 µM
TGI [48]: > 100 µM
TGI [49]: > 100 µM
TGI [50]: > 100 µM
TGI [51]: > 100 µM
TGI [52]: > 100 µM
TGI [53]: > 100 µM
TGI [54]: > 100 µM
TGI [55]: > 100 µM
TGI [56]: > 100 µM
TGI [57]: > 100 µM
